Patent publication US11628147B2, “Vitamin K2 compositions for the treatment of drug induced neuropathy” (priority 2017, dated 2023)

Tests used:
[1] = tested on: symptoms of drug-induced peripheral neuropathy in multiple myeloma patients on chemotherapy; test: Open labelled study of vitamin K2-7 on drug-induced peripheral neuropathy, symptoms scored by VAS; format: in vivo, human; conditions: for VAS Score: scale 0-10
Experimental: An open labelled study was conducted to evaluate the effect of vitamin K2-7 on drug-induced peripheral neuropathy. Patients who were diagnosed with multiple myeloma and are on chemotherapy treatment for the same, were assessed for the occurrence of symptoms of peripheral neuropathy and then selected. Patients were given 2 capsules of 100 mcg or 350 mcg of vitamin K2-7 along with the ongoing chemotherapy. The evaluation of symptoms of peripheral neuropathy (such as tingling, numbness, burning sensation, muscle cramps etc.) were assessed by VAS score (Schematic 1) from 0 to 10 (nil to unbearable). The scale has been used in various studies to measure the intensity and severity of various symptoms of neuropathy.
As the patients continued with the therapy, it was observed that the VAS score for all the symptoms decreased to between the range of “1” and “2”. This decrease has happened over a period of 2 to 5 months, depending upon the individual cases treated. […] The examples given in Table 1, summarises the data for 11 patients who were on vitamin K2-7 therapy for drug-induced peripheral neuropathy due to treatment for multiple myeloma. In Table 1, treatment administered refer to the cyclical chemotherapy provided to the patients of multiple myeloma (MM). These cycles are normally of 3 weeks or 21 days period, based on the attending physician's assessment of the patient's condition and tolerance.
However, vitamin K2-7 was administered daily as two […] capsules.
Treatment with vitamin K2-7 of subjects continued even after their having reached VAS score of “2”.
The gradation was judged by Physician based on following criteria. By using Visual Analog Scale, i.e. 0-10 point scale: 0=Absent; 1-3=Mild; 4-6=Moderate; 7-10=Severe.

[2] = natural forms, even at high doses; cited from earlier work
[3] = in vivo; cited from earlier work

SMILES	improvement in peripheral neuropathy ([1]; 1 of 11 patients who remained on 100 μg two times a day daily)	VAS Score ([1]; Patient 1, chemotherapy Bortezomib, Cyclophosphamide, Dexamethasone since June 2014, K2-7 from 16 Jun. 15 (350 μg), VAS before 8, scored 10 Dec. 15)	VAS Score ([1]; Patient 2, chemotherapy Lenalidomide, Dexamethasone since 2014, K2-7 from 25 Jun. 15 (350 μg), VAS before 8, scored 05 Nov. 15)	VAS Score ([1]; Patient 3, chemotherapy Lenalidomide, Dexamethasone, Zolendronic Acid since 2015, K2-7 from 19 Aug. 15 (100 μg), VAS before 8, scored 14 Mar. 16)	VAS Score ([1]; Patient 4, chemotherapy Bortezomib, Cyclophosphamide, Dexamethasone since 2015, K2-7 from 09 Jun. 16 (350 μg), VAS before 8, scored 22 Dec. 16)	VAS Score ([1]; Patient 5, chemotherapy Bortezomib, Cyclophosphamide, Dexamethasone since 2016, K2-7 from 23 Feb. 17 (350 μg), VAS before 9, scored 12 Aug. 17)	VAS Score ([1]; Patient 6, chemotherapy Rituximab, Cyclophosphamide, Doxorubicin, Vincristine, Prednisolone since November 2014, K2-7 from 22 May 17 (350 μg), VAS before 9, scored 04 Oct. 17)	VAS Score ([1]; Patient 7, chemotherapy Lenalidomide, Dexamethasone since 2010, K2-7 from 30 Jun. 17 (350 μg), VAS before 8, scored 27 Dec. 17)	VAS Score ([1]; Patient 8, chemotherapy Bortezomib, Cyclophosphamide, Dexamethasone since March 2017, K2-7 from 03 Nov. 17 (350 μg), VAS before 7, scored 03 Apr. 18)	VAS Score ([1]; Patient 9, chemotherapy Bortezomib, Cyclophosphamide, Dexamethasone since 2016, K2-7 from 20 Jul. 16 (350 μg), VAS before 9, scored 11 Jan. 17)	VAS Score ([1]; Patient 10, chemotherapy Lenalidomide, Dexamethasone since 2016, K2-7 from 10 Jun. 17 (350 μg), VAS before 8, scored 10 Jan. 18)	VAS Score ([1]; Patient 11, chemotherapy Dexamethasone since 2016, K2-7 from 25 Mar. 17 (350 μg), VAS before 9, scored 29 Sep. 17)	flare up of symptoms of drug-induced peripheral neuropathy ([1]; continuation of vitamin K2-7 during subsequent chemotherapy cycles)	adverse events during the vitamin K2-7 therapy ([1]; multiple myeloma patients on chemotherapy)	effect of continued treatment after reaching VAS score of 2 ([1]; treatment continued after VAS score of 2)	symptoms of toxicity [2]	half-life [3]
CC(C)=CCC/C(C)=C/CC/C(C)=C/CC/C(C)=C/CC/C(C)=C/CC/C(C)=C/CC/C(C)=C/CC1=C(C)C(=O)c2ccccc2C1=O [Vitamin K2-7, vitamin K2-7]	significant improvement	2	2	2	1	2	2	2	2	2	3	2	prevented the flair up	no adverse events were noted	stabilised the VAS Score	have not produced symptoms of toxicity	more than 72 hours
CC1=C(C/C=C(\C)CCC[C@H](C)CCC[C@H](C)CCCC(C)C)C(=O)c2ccccc2C1=O [vitamin K1, phylloquinonc]	–	–	–	–	–	–	–	–	–	–	–	–	–	–	–	–	1.5 h
